Broadly, the Ki is the dissociation constant of the complex between target and ligand, obtained from inhibition or displacement. A high value points to weaker binding.

One assay deals with Histone deacetylase 1 (Homo sapiens, UniProt Q13547). In words: Inhibition of HDAC1.
In assay [1] the target is T1, Protein deacetylase HDAC6 (Homo sapiens, UniProt Q9UBN7).
T1 sequence (Q9UBN7 whole entry): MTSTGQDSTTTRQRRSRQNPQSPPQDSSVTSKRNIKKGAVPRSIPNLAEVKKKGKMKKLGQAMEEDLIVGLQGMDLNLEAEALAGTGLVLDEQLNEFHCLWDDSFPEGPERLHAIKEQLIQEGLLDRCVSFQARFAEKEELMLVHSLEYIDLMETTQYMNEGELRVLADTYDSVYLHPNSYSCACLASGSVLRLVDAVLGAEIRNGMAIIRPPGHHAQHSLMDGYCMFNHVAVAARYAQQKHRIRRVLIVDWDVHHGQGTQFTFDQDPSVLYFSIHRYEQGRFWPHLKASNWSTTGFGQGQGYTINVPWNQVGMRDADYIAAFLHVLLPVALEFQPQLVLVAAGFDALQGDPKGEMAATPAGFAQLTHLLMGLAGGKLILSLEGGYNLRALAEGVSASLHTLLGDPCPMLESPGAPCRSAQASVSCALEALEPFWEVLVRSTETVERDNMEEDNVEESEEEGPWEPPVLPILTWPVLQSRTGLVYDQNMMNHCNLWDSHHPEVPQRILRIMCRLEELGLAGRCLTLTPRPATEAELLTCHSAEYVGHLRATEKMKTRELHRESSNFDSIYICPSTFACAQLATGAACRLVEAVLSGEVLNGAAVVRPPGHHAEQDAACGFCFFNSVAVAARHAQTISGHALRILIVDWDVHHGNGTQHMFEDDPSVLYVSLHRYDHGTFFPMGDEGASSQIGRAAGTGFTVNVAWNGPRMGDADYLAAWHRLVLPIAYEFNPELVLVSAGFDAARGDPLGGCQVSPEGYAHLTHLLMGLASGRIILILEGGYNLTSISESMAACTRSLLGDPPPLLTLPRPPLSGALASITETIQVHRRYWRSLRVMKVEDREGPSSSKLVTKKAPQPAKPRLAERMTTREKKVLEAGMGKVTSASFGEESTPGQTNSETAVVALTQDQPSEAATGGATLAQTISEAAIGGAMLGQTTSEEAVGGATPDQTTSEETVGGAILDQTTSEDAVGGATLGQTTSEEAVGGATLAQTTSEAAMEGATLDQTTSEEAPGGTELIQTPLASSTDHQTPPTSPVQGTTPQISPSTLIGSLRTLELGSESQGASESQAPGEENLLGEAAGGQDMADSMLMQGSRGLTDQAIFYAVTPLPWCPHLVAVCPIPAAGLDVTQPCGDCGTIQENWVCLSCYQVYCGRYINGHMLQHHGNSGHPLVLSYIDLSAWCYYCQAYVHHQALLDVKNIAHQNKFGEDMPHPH
In words: Inhibition of HDAC6.

For the next assay, the target named is Histone deacetylase 9 (Homo sapiens, UniProt Q9UKV0). As to the kind of experiment: Inhibition of HDAC9.
Sequence of Histone deacetylase 9 (Q9UKV0 whole entry): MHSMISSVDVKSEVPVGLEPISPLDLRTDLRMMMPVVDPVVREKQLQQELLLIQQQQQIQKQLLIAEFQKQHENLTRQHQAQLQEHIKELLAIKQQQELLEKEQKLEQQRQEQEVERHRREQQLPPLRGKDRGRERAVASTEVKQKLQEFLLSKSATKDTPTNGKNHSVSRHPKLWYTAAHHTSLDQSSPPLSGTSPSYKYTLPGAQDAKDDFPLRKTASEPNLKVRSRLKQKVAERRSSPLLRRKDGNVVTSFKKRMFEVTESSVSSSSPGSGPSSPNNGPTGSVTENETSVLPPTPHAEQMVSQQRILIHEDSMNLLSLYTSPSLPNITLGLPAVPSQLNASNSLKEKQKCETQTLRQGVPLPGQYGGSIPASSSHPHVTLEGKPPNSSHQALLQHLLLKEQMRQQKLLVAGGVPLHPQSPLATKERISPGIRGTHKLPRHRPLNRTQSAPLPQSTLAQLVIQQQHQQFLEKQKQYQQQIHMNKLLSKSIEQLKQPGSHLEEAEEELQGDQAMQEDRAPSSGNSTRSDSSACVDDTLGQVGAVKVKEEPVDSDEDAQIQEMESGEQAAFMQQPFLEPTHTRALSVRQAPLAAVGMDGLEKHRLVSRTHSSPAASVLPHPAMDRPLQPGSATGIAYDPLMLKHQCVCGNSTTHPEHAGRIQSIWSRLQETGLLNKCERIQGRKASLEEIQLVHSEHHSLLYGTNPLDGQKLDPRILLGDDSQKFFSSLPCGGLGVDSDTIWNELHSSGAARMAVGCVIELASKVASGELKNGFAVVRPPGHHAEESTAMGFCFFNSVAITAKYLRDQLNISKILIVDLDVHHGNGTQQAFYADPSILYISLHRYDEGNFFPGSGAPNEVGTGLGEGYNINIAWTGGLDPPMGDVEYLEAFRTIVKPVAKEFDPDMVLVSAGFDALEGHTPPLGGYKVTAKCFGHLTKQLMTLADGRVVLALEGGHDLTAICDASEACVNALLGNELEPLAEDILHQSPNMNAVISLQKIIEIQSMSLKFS

Sequence of Histone deacetylase 1 (Q13547 whole entry): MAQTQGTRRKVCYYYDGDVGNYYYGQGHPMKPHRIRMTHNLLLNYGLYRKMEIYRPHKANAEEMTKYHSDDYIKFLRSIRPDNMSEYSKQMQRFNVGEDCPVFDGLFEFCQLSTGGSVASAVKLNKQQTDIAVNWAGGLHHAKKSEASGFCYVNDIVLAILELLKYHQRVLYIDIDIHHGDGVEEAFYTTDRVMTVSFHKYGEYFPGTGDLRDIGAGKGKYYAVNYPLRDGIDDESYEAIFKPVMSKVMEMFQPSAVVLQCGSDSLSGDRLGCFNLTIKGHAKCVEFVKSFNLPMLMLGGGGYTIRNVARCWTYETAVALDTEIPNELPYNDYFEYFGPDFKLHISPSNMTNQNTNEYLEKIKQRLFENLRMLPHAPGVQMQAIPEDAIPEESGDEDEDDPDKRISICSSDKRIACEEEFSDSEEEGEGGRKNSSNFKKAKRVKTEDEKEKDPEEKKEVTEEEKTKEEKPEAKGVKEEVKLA

Take `O=C(CCCCCCC(=O)Nc1ccc([C@H]2O[C@@H](CSc3ccncc3)C[C@@H](c3ccccc3)O2)cc1)NO`: the Ki at Histone deacetylase 1 turned out to be 88 nM; in assay [1] it was 28 nM; at Histone deacetylase 9, 6100 nM.

Source of the values: ChEMBL document CHEMBL1150269, “Structural origin of selectivity in class II-selective histone deacetylase inhibitors” (J Med Chem, 2008).
